Test results as given in US10725042B2, “Methods of diagnosing and treating cancer” (Case Western Reserve University, priority 2012, dated 2020).

System: uracil in DNA of UDG−/− cells
Experiment: Uracil in DNA by HPLC/MS/MS, UDG−/− cells
Format: cell-based, human
Description: UDG^−/− and UDG^+/+ cells were exposed to pemetrexed (10 μM) or 5-fluorouracil (10 μM) for 6, 24, 48 and 72 hrs. At indicated time points, cells were harvested and genomic DNA was extracted by phenol/chloroform. Forty μg of DNA were incubated with 10 U of purified UDG (New England Biolabs) in 60 μL of reaction buffer at 37° C. for 2 hrs. The reaction products were dried at 35° C. in a Turbovap under a stream of nitrogen and reconstituted in 150 μL 90% acetonitrile. The analyte was retained by an Atlantis Hilis Silica analytical column (2.1×100 mm, 3.5 μM) and eluted isocratically by a mixture of 90% acetonitrile and 10% 2.0 mM ammonium formate at a flow rate of 0.2 ml/min. The detection was done by an API 3200 MS/MS mass spectrometer.

## Nc1nc2[nH]cc(CCc3ccc(C(=O)N[C@@H](CCC(=O)O)C(=O)O)cc3)c2c(=O)[nH]1 [pemetrexed]
UDG−/− cells, drug 10 μM, 6-72 hr
  uracil detected in DNA: significant amount of uracil
UNG−/− human cancer cells exposed to pemetrexed
  uracil accumulation compared to UNG+/+ controls: up to 40 fold
